Results as given in patent EP0443598A2, “Peptides inhibiting the blood coagulation, their process of preparation and their use” (BEHRINGWERKE Aktiengesellschaft, priority 1990, dated 1991).

Tested on: Standard Humanplasma
Assay: partial thromboplastin time (PTT) test
Assay type: biochemical, Human
Details: blank without peptide 38.8
Description: 10 mg des Peptids wurden in 1 ml Puffer (20 mM Tris, 150 mM NaCl pH 7.5) gelöst. Das Peptid wurde in der partiellen Thromboplastinzeit (PTT) gegenüber einem Peptid mit derselben Sequenz getestet, das anstelle von Phe(SO₃ H) jedoch Tyr enthielt.
100 Mikroliter Standard Humanplasma 100 Mikroliter Puffer (s.o.) 100 Mikroliter Kaolin/Pathromtin Reagenz (BEHRINGWERKE AG) 2 Minuten bei 37°C 100 Mikroliter CaCl₂-Lösung

[1] = Verdünnung 1:4 of peptide solution 10 mg in 1 ml buffer (20 mM Tris, 150 mM NaCl pH 7.5)
[2] = Verdünnung 1:8 of peptide solution 10 mg in 1 ml buffer
[3] = Verdünnung 1:16 of peptide solution 10 mg in 1 ml buffer
[4] = Verdünnung 1:32 of peptide solution 10 mg in 1 ml buffer
[5] = Verdünnung 1:64 of peptide solution 10 mg in 1 ml buffer
[6] = Verdünnung 1:128 of peptide solution 10 mg in 1 ml buffer
[7] = Verdünnung 1:256 of peptide solution 10 mg in 1 ml buffer
[8] = Verdünnung 1:512 of peptide solution 10 mg in 1 ml buffer
[9] = Verdünnung 1:1024 of peptide solution 10 mg in 1 ml buffer

| Substance | Gerinnungszeiten in Sekunden [1] [Sekunden] | Gerinnungszeiten in Sekunden [2] [Sekunden] | Gerinnungszeiten in Sekunden [3] [Sekunden] | Gerinnungszeiten in Sekunden [4] [Sekunden] | Gerinnungszeiten in Sekunden [5] [Sekunden] | Gerinnungszeiten in Sekunden [6] [Sekunden] | Gerinnungszeiten in Sekunden [7] [Sekunden] | Gerinnungszeiten in Sekunden [8] [Sekunden] | Gerinnungszeiten in Sekunden [9] [Sekunden] |
| --- | --- | --- | --- | --- | --- | --- | --- | --- | --- |
| Asn-Gly-Asp-Phe-Glu-Glu-Ile-Pro-Glu-Glu-Phe(SO₃H)-Leu-OH [Peptid lt. Beispiel] | 147.2 | 111.8 | 89.2 | 81.5 | 72.8 | 63.0 | 56.3 | 52.2 | 46.8 |
| Asn-Gly-Asp-Phe-Glu-Glu-Ile-Pro-Glu-Glu-Tyr-Leu-OH (NGDFEEIPEEYL; printed: Asn-Gly-Asp-Phe-Glu-Glu-Ile-Pro-Glu-Glu-Tyr-Leu-) [Peptid mit Tyr] | 105.2 | 80.5 | 71.0 | 65.0 | 57.7 | 52.8 | 47.3 | 44.7 | 41.7 |
